Patent publication US5354758A, “Benzomorphans useful as NMDA receptor antagonists” (priority 1992, dated 1994)
Like-named read-outs stand apart in the source and are kept apart here.

Experiments:
[1] = target: T1, σ-site of opioid receptor (Cavia porcellus, UniProt Q60492); assay: In vitro binding, inhibition of [^3 H]PPP binding to guinea pig brain homogenate; design: species or system Hartley guinea pig; details: for Ki: guinea pig brain homogenate, 0.6 nM [^3 H]PPP, 25° C., 1 hour
T1 construct: Hartley guinea pigs were decapitated, and the brains were removed and homogenized; from tissue; host or cells: Hartley guinea pig brain homogenate (washed membranes)
Protocol: (§1) As described below, the compounds of the invention were tested for their ability to inhibit binding of radiolabeled versions of these known ligands.
Hartley guinea pigs were decapitated, and the brains were removed and homogenized in 20 volumes of 50 mM Tris-HCl using a Polytron homogenizer. The homogenate was centrifuged at 27,000×G for 15 minutes, and the pellet was resuspended in 50 mM Tris-HCl. The centrifugation procedure was repeated twice. The pellet was diluted to approximately 8 mg wet tissue/assay. Various concentrations of the test compounds (100 μL) and [^3 H]PPP (100 μL, final concentration 0.6 nM) were incubated with 1.8 mL of the tissue homogenate at 25° C. for 1 hour. Unlabeled PPP (final concentration 10 μM) was added to some tubes to determine nonspecific binding. The reaction was stopped by filtration through GF/B filters using a Brandel Cell Harvester. After washing twice with […] of ice cold Tris-HCl, the filters were suspended in 5 mL of scintillation fluid, and the radioactivity was counted after standing at room temperature overnight.
Table 1 summarizes the results of the in vitro binding studies using these three radioligands at the NMDA receptor site, μ-site and σ-site of opioid receptor, respectively.

NMDA receptor site [2] = assay: In vitro binding, inhibition of [^3 H]MK-801 binding to rat forebrain synaptic membranes; design: species or system Sprague-Dawley rat; details: 3 nM [^3 H]MK-801, 50 μM glycine and glutamate, 37° C., 2 hours, read-out: Ki [^3 H]MK801
Protocol: as §1
Semipurified synaptic membranes were prepared according to the method of Bristow et al. (1986) with minor modifications. Sprague-Dawley rats were decapitated and the forebrains were removed, weighed, and homogenized in 20 volumes of 0.32M sucrose. The homogenate was centrifuged at 121×G for 10 min. The resulting supernatant was recentrifuged at 27,000×G for 15 min. The pellet was resuspended in 20 volumes of distilled water and this suspension was centrifuged at 8,000×G for 10 min. Both the supernatant and the buffy coat layer, removed with 2 mL of 5 mM Tris-Cl (pH 7.8), were pooled and centrifuged at 27,000×G for 15 min. The supernatant was removed, the pellet was covered with a small amount of 5 mM Tris-Cl, and the sample was frozen for at least 18 hrs at -20° C. Membranes were then washed four times in 5 mM Tris-Cl and finally resuspended in 25 mL. This preparation was used for the binding assay immediately or frozen for subsequent use.
The incubation was terminated by rapid filtration (Brandel Cell Harvester) over Whatman GF/B filters, which were then washed twice with 5 mL of 5 mM Tris-HCl. Radioactivity trapped on the filters was counted in 5 mL Scintiverse II at 50% efficiency in 7 mL minivials after standing at room temperature overnight.

[3] = target: T2, μ-site of opioid receptor (Rattus norvegicus, UniProt P33535); assay: In vitro binding, inhibition of [^3 H]DAGO binding to rat forebrain synaptic membranes; design: species or system Sprague-Dawley rat
T2 construct: Semipurified synaptic membranes were prepared according to the method of Toll et al. (1984); from tissue; host or cells: adult male Sprague-Dawley rat forebrain membranes
Protocol: as §1
Semipurified synaptic membranes were prepared according to the method of Toll et al. (1984). Adult male Sprague-Dawley rats were decapitated, and the forebrains were removed, weighed, and homogenized in 20 volumes of […] Tris-HCl, pH 7.7. The homogenate was centrifuged at 27,000×G for 15 minutes, and the resulting pellet was resuspended in buffer and recentrifuged twice. The washed membranes were resuspended in buffer to obtain a membrane concentration of 7.2 mg brain weight/mL; the final concentration in each assay tube was 12.2 mg/2 mL. […] The reaction was stopped by filtration through GF/B filters using a Brandel Cell Harvester. After washing twice with 5 mL of ice cold buffer, the filters were suspended in 5 mL scintillation fluid, and the radioactivity was counted after standing at room temperature overnight.

NMDA-induced lethality = assay: In vivo protection in the mouse against NMDA-induced lethality; design: species or system Swiss-Webster mouse; details: ip, 30 minutes before 200 mg/kg NMDA, eight mice per dose, Litchfield and Wilcoxin; for ED50: Mus musculus
Protocol: (§2) According to the method described by Ferkany et al. (1988), the test compounds were administered ip to four male Swiss-Webster mice (26-34 g) each, following 30 minutes later, 200 mg/kg of NMDA was administered to the mice each. […] Those compounds that protected three or more of the mice at any of the doses were evaluated further by determining the ED50 values using three or more doses with the eight mice per dose. The ED50 was estimated by the method of Litchfield and Wilcoxin (1949). Water-soluble compounds were dissolved in distilled water and administered in a volume of 10 ml/kg. Water-insoluble compounds were suspended in an aqueous solution of 0.5% methyl cellulose and administered in a volume of 20 ml/kg.

[4] = system: σ-site of opioid receptor; details: shown previously; cited from earlier work
NMDA receptor site [5] = details: shown previously; cited from earlier work
mice = assay: Lethality of NMDA in mice; format: in vivo, Swiss-Webster mouse; details: NMDA at 200 mg/kg
Protocol: as §2

[6] = Ki [^3 H]DAGO, 2 nM [^3 H]DAGO, 25° C., 1 hour

T2 sequence (P33535 whole entry): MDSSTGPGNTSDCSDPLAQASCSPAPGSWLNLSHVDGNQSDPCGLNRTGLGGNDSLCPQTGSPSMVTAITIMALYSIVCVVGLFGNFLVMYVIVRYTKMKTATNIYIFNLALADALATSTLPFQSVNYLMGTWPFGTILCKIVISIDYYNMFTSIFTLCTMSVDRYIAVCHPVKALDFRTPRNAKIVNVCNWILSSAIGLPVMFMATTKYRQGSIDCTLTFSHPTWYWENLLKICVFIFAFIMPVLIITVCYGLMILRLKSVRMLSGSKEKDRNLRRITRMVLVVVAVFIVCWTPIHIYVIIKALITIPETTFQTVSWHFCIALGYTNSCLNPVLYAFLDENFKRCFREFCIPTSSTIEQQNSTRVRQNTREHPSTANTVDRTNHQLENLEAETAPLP
T1 sequence (Q60492 whole entry): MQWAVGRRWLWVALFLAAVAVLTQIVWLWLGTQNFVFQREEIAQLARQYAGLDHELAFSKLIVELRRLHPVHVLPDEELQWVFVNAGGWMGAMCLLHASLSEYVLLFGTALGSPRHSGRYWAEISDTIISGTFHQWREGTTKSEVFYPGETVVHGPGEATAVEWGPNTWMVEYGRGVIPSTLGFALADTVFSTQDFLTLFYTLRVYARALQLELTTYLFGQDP

C#CC(C)N1CC[C@]2(C)c3ccccc3C[C@H]1[C@H]2C (single isomer, unassigned; (+)) [(+)-BZ-6 (Isomer A)]
Ki ([1]; read-out: Ki [^3 H]PPP): 19.2 µM | Ki (NMDA receptor site [2]): 16.6 µM | Ki [3, 6]: 12.3 µM | Mouse ED50 (NMDA-induced lethality): > 50 mg/kg

CCCN1CCCC(c2cccc(O)c2)C1 (stereo not shown) [PPP, reference compound]
high-affinity ligand at the σ site of the opioid receptor [4]: high-affinity | Kd [1]: 0.02 µM

C[C@@H]1[C@@H]2Cc3ccccc3[C@@]1(C)CCN2N(C)C [(+)-BZ-18, (1S,5S,9S)-(+)-5,9-dimethyl-2-dimethylamino-6,7-benzomorphan]
Ki ([1]; read-out: Ki [^3 H]PPP): 0.81 µM | Ki (NMDA receptor site [2]): 4.54 µM | ED50 (NMDA-induced lethality): 14.4 mg/kg

CC(C1CC1)N1CC[C@]2(C)c3ccccc3C[C@H]1[C@H]2C (single isomer, unassigned; (+)) [(+)-IIId-7 (Isomer B)]
Ki ([1]; read-out: Ki [^3 H]PPP): 0.071 µM | Ki (NMDA receptor site [2]): 1.99 µM | Ki [3, 6]: 6.58 µM | Mouse ED50 (NMDA-induced lethality): 13.7 mg/kg

C=CC(C1CC1)N1CC[C@]2(C)c3ccccc3C[C@H]1[C@H]2C (single isomer, unassigned; (+)) [(+)-BZ-4]
Ki ([1]; read-out: Ki [^3 H]PPP): 0.13 µM | Ki (NMDA receptor site [2]): 11.5 µM | Ki [3, 6]: 20.2 µM | ED50 (NMDA-induced lethality): 24.1 mg/kg

C#CC(C)N1CC[C@]2(C)c3ccccc3C[C@H]1[C@H]2C (single isomer, unassigned; (+)) [(+)-BZ-6 (Isomer B)]
Ki ([1]; read-out: Ki [^3 H]PPP): 1.1 µM | Ki (NMDA receptor site [2]): 2.55 µM | Ki [3, 6]: 9 µM | Mouse ED50 (NMDA-induced lethality): 18.8 mg/kg

C[C@]12N[C@H](Cc3ccccc31)c1ccccc12 [MK-801]
high-affinity ligand at the NMDA receptor site (NMDA receptor site [5]): high-affinity

CC(C)N1CC[C@]2(C)c3ccccc3C[C@H]1[C@H]2C [(+)-IIId-6, (1S,5S,9S)-(+)-2-Isopropyl-5,9-dimethyl-6,7-benzomorphan]
Ki ([1]; read-out: Ki [^3 H]PPP): 0.56 µM | Ki (NMDA receptor site [2]): 3.51 µM | Ki [3, 6]: 18.9 µM | ED50 (NMDA-induced lethality): 17.3 mg/kg

CN[C@H](CC(=O)O)C(=O)O [NMDA, N-methyl-D-aspartate]
mice died (mice): approximately 90%

C[C@@H]1[C@@H]2Cc3ccccc3[C@@]1(C)CCN2C(C)(C)C [(+)-BZ-15A, (1S,5S,9S)-(+)-2-Tert-butyl-5,9-dimethyl-6,7-benzomorphan]
Ki ([1]; read-out: Ki [^3 H]PPP): 0.98 µM | Ki (NMDA receptor site [2]): 2.59 µM | Ki [3, 6]: 7.29 µM | ED50 (NMDA-induced lethality): 10.7 mg/kg

CC(C1CO1)N1CC[C@]2(C)c3ccccc3C[C@H]1[C@H]2C (single isomer, unassigned; (+)) [(+)-BZ-5 (Isomer A)]
Ki ([1]; read-out: Ki [^3 H]PPP): 0.04 µM | Ki (NMDA receptor site [2]): 29.2 µM | Ki [3, 6]: 9.74 µM

CC(C1CCC1)N1CC[C@]2(C)c3ccccc3C[C@H]1[C@H]2C (single isomer, unassigned; (+)) [(+)-BZ-3 (Isomer A)]
Ki ([1]; read-out: Ki [^3 H]PPP): 0.0012 µM | Ki (NMDA receptor site [2]): 0.22 µM | Ki [3, 6]: 11.8 µM | Mouse ED50 (NMDA-induced lethality): 16.4 mg/kg

CN1CC[C@@]23CCCC[C@@H]2[C@@H]1Cc1ccc(O)cc13 [Dextrorphan, reference compound]
Ki [3, 6]: 2.2 µM | Mouse ED50 (NMDA-induced lethality): 34.6 mg/kg

CC(C1CO1)N1CC[C@]2(C)c3ccccc3C[C@H]1[C@H]2C (mixture of isomers) [(+)-BZ-5 (Mixture of Isomer B and C), (1S,5S,9S)-(+)-5,9-Dimethyl-2-(1-methyl-2,3-epoxypropyl)-6,7-benzomorphan]
Ki ([1]; read-out: Ki [^3 H]PPP): 0.042 µM | Ki [3, 6]: 12.4 µM | ED50 (NMDA-induced lethality): 32.5 mg/kg

C[C@@H]1[C@@H]2Cc3ccccc3[C@@]1(C)CCN2O [(+)-BZ-17A, (1S,5S,9S)-(+)-2-hydroxy-5,9-dimethyl-6,7-benzomorphan]
Ki ([1]; read-out: Ki [^3 H]PPP): 25.9 µM | Ki (NMDA receptor site [2]): 43 µM | Ki [3, 6]: 21.9 µM | ED50 (NMDA-induced lethality): 21.6 mg/kg

CC(C1CC1)N1CC[C@]2(C)c3ccccc3C[C@H]1[C@H]2C (single isomer, unassigned; (+)) [(+)-IIId-7 (Isomer A)]
Ki ([1]; read-out: Ki [^3 H]PPP): 0.02 µM | Ki (NMDA receptor site [2]): 0.75 µM | Ki [3, 6]: 3.05 µM | Mouse ED50 (NMDA-induced lethality): 6.8 mg/kg

CC(C1CC1)N1CC[C@]2(C)c3cc(F)ccc3C[C@H]1[C@H]2C (single isomer, unassigned; (+)) [(+)-BZ-14 (Isomer A)]
Ki ([1]; read-out: Ki [^3 H]PPP): 0.014 µM | Ki (NMDA receptor site [2]): 0.85 µM | Ki [3, 6]: 0.72 µM | Mouse ED50 (NMDA-induced lethality): 6.1 mg/kg

CC(C1CCC1)N1CC[C@]2(C)c3ccccc3C[C@H]1[C@H]2C (single isomer, unassigned; (+)) [(+)-BZ-3 (Isomer B)]
Ki ([1]; read-out: Ki [^3 H]PPP): 0.0081 µM | Ki (NMDA receptor site [2]): 3.61 µM | Ki [3, 6]: 13.5 µM | Mouse ED50 (NMDA-induced lethality): > 60 mg/kg

CC(C1CO1)N1CC[C@]2(C)c3ccccc3C[C@H]1[C@H]2C (single isomer, unassigned; (+)) [(+)-BZ-5]
Ki ([1]; read-out: Ki [^3 H]PPP): 0.011 µM | Ki (NMDA receptor site [2]): 11.6 µM | Ki [3, 6]: 5.8 µM

COc1ccc2c(c1)[C@]13CCCC[C@@H]1[C@H](C2)N(C)CC3 [Dextromethorphan, reference compound]
Ki ([1]; Ki [^3 H]PPP): 0.15 µM | Ki [3, 6]: 1.74 µM | ED50 (NMDA-induced lethality): 39 mg/kg

CC(C)N1CC[C@]2(C)c3cc(Cl)ccc3C[C@H]1[C@H]2C [(+)-BZ-26, (1S,5S,9S)-(+)-2'-Chloro-2-isopropyl-5,9-dimethyl-6,7-benzomorphan]
Ki ([1]; read-out: Ki [^3 H]PPP): 0.074 µM | Ki (NMDA receptor site [2]): 12.8 µM | Ki [3, 6]: 11.8 µM | ED50 (NMDA-induced lethality): 12.2 mg/kg

C=CC(C)N1CC[C@]2(C)c3ccccc3C[C@H]1[C@H]2C (single isomer, unassigned; (+)) [(+)-BZ-2]
Ki ([1]; read-out: Ki [^3 H]PPP): 0.1 µM | Ki (NMDA receptor site [2]): 1.32 µM | Ki [3, 6]: 9.58 µM | ED50 (NMDA-induced lethality): 22.1 mg/kg

C[C@@H]1[C@@H]2Cc3ccccc3[C@@]1(C)CCN2C(C1CC1)C1CC1 [(+)-BZ-1, (1S,5S,9S)-(+)-2-Dicyclopropylmethyl-5,9-dimethyl-6,7-benzomorphan]
Ki ([1]; read-out: Ki [^3 H]PPP): 0.16 µM | Ki (NMDA receptor site [2]): 14 µM | Ki [3, 6]: 11.5 µM | ED50 (NMDA-induced lethality): 33.1 mg/kg

CC(C)N1CC[C@]2(C)c3cc(F)ccc3C[C@H]1[C@H]2C [(+)-BZ-13, (1S,5S,9S)-(+)-2'-Fluoro-2-isopropyl-5,9-dimethyl-6,7-benzomorphan]
Ki ([1]; read-out: Ki [^3 H]PPP): 0.26 µM | Ki (NMDA receptor site [2]): 4.15 µM | Ki [3, 6]: 20.2 µM | ED50 (NMDA-induced lethality): 9 mg/kg

CC(C1CC1)N1CC[C@]2(C)c3cc(F)ccc3C[C@H]1[C@H]2C (single isomer, unassigned; (+)) [(+)-BZ-14 (Isomer B)]
Ki ([1]; read-out: Ki [^3 H]PPP): 0.062 µM | Ki (NMDA receptor site [2]): 3.53 µM | Ki ([3]; read-out: Ki [^3 H]DAGO, 2 nM [^3 H]DAGO, 25° C., 1 hour): 5.01 µM | Mouse ED50 (NMDA-induced lethality): 13 mg/kg
